Key:
K. pneumoniae 9170 [1] = assay: Resistance development by serial passaging at sub-lethal concentrations; assay type: cell-based, Klebsiella pneumoniae
Description: To test bacterial resistance and resistance prevention, a sub-lethal dose (so as to not kill all bacteria) of the respective antimicrobials was repeatedly applied to K. pneumoniae samples for 24 hours at each passage, wherein the bacteria were allowed to replicate and/or mutate. MIC values of the respective antimicrobials were then measured after each repetition to monitor MIC changes. An increase in MIC value indicates development of resistance in the bacteria. In particular, samples of K. pneumoniae 9170 bacteria were first exposed to the respective antimicrobials (e.g., All polymers having Structures I, IV and V, imipenem and levofloxacin) for the determination of MICs as described above. Subsequently, 50 μL of bacteria from wells of 0.5×MIC were harvested and grown overnight, and then subjected to MIC determination for up to 20 similar serial passages (e.g., 20 single applications once a day for 20 days).
Unfortunately, antibiotic resistance has raised a global concern over the past few years.

K. pneumoniae 9170 [2] = assay: In vivo efficacy (ED50/ED95) in bacteria-caused lung infection mouse model; design: species or system mice; details: Klebsiella pneumoniae, 9170, ip
Description: In this regard, immunosuppressed mice (7 weeks old) were used for the following in vivo studies. Immunosuppression was induced by intraperitoneal injection of 200 mg/kg cyclophosphamide 4 days prior to infection. The mice were anesthetized by intraperitoneal injection of 1% pentobarbital (40 mg/kg, Sigma). The mice were then infected with K. pneumoniae 9170 to determine the minimum lethal dose for subsequent effective does and efficacy testing. Overnight cultures of K. pneumoniae 9170 were harvested and suspended in PBS. Subsequently, the cyclophosphamide-pretreated mice were intranasally injected with 25.0 μL of the bacterial suspension at designated doses (e.g., 1.0×10^8, 2.5×10^8, 5×10^8, 1.0×10^9, 2.0×10^9 CFU/mL, six mice per group). The minimum lethal dose (LD), the lowest concentration sufficient to cause 100% mortality, was determined from the survival rate of mice at 5 days post-infection by the BLISS method.
The effective doses ED50 and ED95 doses of the respective polymers and imipenem for comparison, were tested using a bacteria-caused lung infection mouse model as follows. Firstly, a bacterial suspension with the minimum lethal dose (25.0 μL) was introduced to the above described cyclophosphamide-pretreated mice intranasally. […] The number of surviving mice in each group was recorded for 5.0 day to estimate ED50 and ED95 via the BLISS method.

[3] = test system: MDR clinical isolates of K. pneumoniae, E. coli, A. baumannii, P. aeruginosa, E. faecium and MRSA; assay: MIC by broth microdilution against different types and strains of MDR clinically isolated bacteria; assay type: cell-based; details: Gram-negative and Gram-positive MDR clinical isolates
Description: The MICs of the guanidinium functionalized polymers and the respective antibiotics against the clinical isolates were measured via the broth microdilution method. In accordance with the broth microdilution method, the MDR microbes including one or more strains of K. pneumoniae, E. coli, A. baumannii, P. aeruginosa, E. coli, E. faecium, and MRSA were harvested in mid exponential growth phase after grown overnight in Mueller-Hinton (MH) agar plates at 37° C. The antimicrobial agents were prepared in MH broth (MHB) at various concentrations. The bacteria suspensions were then diluted with phosphate-buffer saline (PBS, PH 7.4) to adjust the turbidity approximately to the Standard McFarland 0.6, which corresponds to the concentration of 1×10^8 colony-forming unit (CFU)/mL, after which the bacteria suspension was further diluted by 100-fold with MHB (1×10^6 CFU/mL). Subsequently, equal volumes (100 microliters (μL)) of bacterial suspension and agent solution prepared previously were mixed in each well of a 96-well plate and incubated for 18 h at 37° C. Broth containing bacteria alone was employed as the negative control, and each MIC was tested in triplicate.
To facilitate comparison, imipenem and vancomycin, typical first-line therapies against Gram-negative and Gram-positive pathogens, were employed as standards or control antibiotics.

Row | SMILES | increase of MIC (K. pneumoniae 9170 [1]; by the 11th passage) [times] | increase of MIC (K. pneumoniae 9170 [1]; by the 20th passage) [fold] | ED50 (K. pneumoniae 9170 [2]) [mg/kg] | increase of MIC (K. pneumoniae 9170 [1]; by the 7th passage) [times] | spectrum of antibacterial activity [3]
1 | C[C@@H](O)[C@H]1C(=O)N2C(C(=O)O)=C(SCCN=CN)C[C@H]12 [imipenem] | 2 | 4 | 5.93 |  | 
2 | C[C@H]1COc2c(N3CCN(C)CC3)c(F)cc3c(=O)c(C(=O)O)cn1c23 [levofloxacin] |  | 16 |  | 2 | 
3 | CN[C@H](CC(C)C)C(=O)N[C@H]1C(=O)N[C@@H](CC(N)=O)C(=O)N[C@H]2C(=O)N[C@H]3C(=O)N[C@H](C(=O)N[C@H](C(=O)O)c4cc(O)cc(O)c4-c4cc3ccc4O)[C@H](O)c3ccc(c(Cl)c3)Oc3cc2cc(c3O[C@@H]2O[C@H](CO)[C@@H](O)[C@H](O)[C@H]2O[C@H]2C[C@](C)(N)[C@H](O)[C@H](C)O2)Oc2ccc(cc2Cl)[C@H]1O [vancomycin] |  |  |  |  | only demonstrated efficacy against Gram-positive strains

From US10995177B2 (priority 2018, dated 2021)
